Assays:
[1] = cited from earlier work
[2] = system: rat cornea wound; test: cornea wound healing in the presence of therapeutics; conditions: for time to heal: wounds 3.5 mm in diameter that normally took 48 hours or more
Experimental: Furthermore, the epithelial wounds were manually made using a biopsy punch. To replicate a more traumatic cornea wound that penetrates both the epithelium and stroma, a Nidek EC-5000 excimer laser was used. The laser settings to obtain circular wounds were 2 mm in diameter and approximately 100 μm deep. We confirmed wound depth using optical coherence tomography (OCT). […] The laser application was performed by first chilling eyes in a saline ice bath prior to wounding, and then applying the laser in 10 second bursts, with 5 second rest in between to minimize laser damage outside the wound. […] The dynamic time course of the electric signal change in the hours after wounding was also similar to that of shallower wounds (see FIG. 9). Normal epithelial wounds 2 mm in diameter heal almost completely in 48 hours. Deep laser wounds took longer to heal than shallow epithelial wounds, but did heal 100% by day 8 (see FIG. 10).
(§1) Wounds 3.5 mm in diameter that normally took 48 hours or more to completely heal were healed in 30 hours in the presence of these therapeutics. To ensure that the aminophylline has the same effect on deep wounds as shallow epithelial wounds, wound electric fields were measured using the vibrating probe with and without the presence of 1 and 10 mM aminophylline. FIG. 11 illustrates the presence of aminophylline in the wound.
FIG. 12 illustrates wound healing of a deep wound (100 μm) without and with the presence of 1 mM aminophylline as function of time. In this regard, at 500, deep wound healing with and without the presence of aminophylline are shown. At 520, an OCT image of the control wound is shown. At 540, an OCT image with the presence of aminophylline in the wound is shown.
Furthermore, FIG. 13 illustrates the percentage of wound healing as a function of time for corneas treated with the bioelectric modulator aminophylline (1 mM).

[3] = system: rat cornea wound; test: cornea wound electric current and ion flux measured with vibrating probe; conditions: for cornea wound electric signal: 10 mM
Experimental: In order to understand corneal wound healing, the spatiotemporal dynamics of rat cornea wound electric currents and ion flux using a vibrating probe were characterized. In particular, measurements of deeper wounds of approximately 100 microns in depth, penetrating the stroma, were analyzed. For both shallow and deep wounds, electric current and ion flux were maximized at the wound edge, minimized at the wound center, and reduced to normal (unwounded) values at a small distance outside the wound. Wound electric current was outward (i.e., outward transient outward flux of potassium which diminished rapidly and therefore appeared to be leakage). Small fluxes of calcium and sodium were also observed. The main ion flux appeared to be a large influx of chloride ions at the wound edge. Time lapse measurements of electric current in the hours after wounding indicate that the wound electric signal was long-lasting and appears to be actively-regulated. The wound electric signal increased rapidly until approximately 40 minutes after wounding and was maintained at a high level for several hours. FIGS. 9 and 10 show time lapse data for both a shallow (normal epithelial) wound and a deep (stromal) wound. In this regard, electric signals for a shallow depth wound and a deep wound were compared.
Furthermore, the epithelial wounds were manually made using a biopsy punch. To replicate a more traumatic cornea wound that penetrates both the epithelium and stroma, a Nidek EC-5000 excimer laser was used. The laser settings to obtain circular wounds were 2 mm in diameter and approximately 100 μm deep. We confirmed wound depth using optical coherence tomography (OCT). […] The laser application was performed by first chilling eyes in a saline ice bath prior to wounding, and then applying the laser in 10 second bursts, with 5 second rest in between to minimize laser damage outside the wound. […]
as §1, with “FIG. 11 illustrates the presence of aminophylline in the wound.” left out
The effects of two distinct rehydrated collagen membranes (with a nominal thickness of 100 μm) on cornea wound electric signal were characterized. […] As the probe was moved away from the source of electric signal, the current detected fell exponentially.
The effect of physical presence of collagen membrane and probe distance from wound edge on the electric signal was tested. The probe was placed in measuring position as close as possible to the wound edge with the collagen membrane, and the electric signal was recorded. […]

Cn1c(=O)c2[nH]cnc2n(C)c1=O [aminophylline]
log partition (log P) coefficient value [1]: −3.03 | cornea wound healing [2]: significantly enhanced | wound healing of a deep wound (OCT) ([2]; deep wound 100 μm, 1 mM, FIG. 12): faster than a control | time to heal [2]: 30 h | chloride flux at the wound [3]: significantly increases | cornea wound electric signal [3]: significantly increase | wound electric field ([3]; deep wounds, 1 and 10 mM, FIG. 11): increase in the wound electric field

O=C1O[C@H]([C@@H](O)CO)C(O)=C1O [ascorbic acid]
cornea wound healing [2]: significantly enhanced | time to heal [2]: 30 h | cornea wound electric signal [3]: significantly increase

From patent US20190201578A1, “Biomaterial Implant” (The Johns Hopkins University, priority 2017, published 2019)
